Test results published in patent publication US9169217B2, “Arylalkyl esters of 4-amino-6-(substituted phenyl)-picolinates and 6-amino-2-(substituted phenyl)-pyrimidinecarboxylates and their use as selective herbicides for crops” (Dow AgroSciences LLC, priority 2011, dated 2015).

Test system: Avena fatua (Oat, wild)
Assay: Postemergence herbicidal activity in cereal crops (Example 14)
Assay type: in vivo
Conditions: wheat cropping systems, postemergence spray, 35 g ae/ha, 21 DAA

## COC(=O)c1nc(-c2ccc(Cl)c(OC)c2F)nc(N)c1OC [Compound F, methyl 6-amino-2-(4-chloro-2-fluoro-3-methoxyphenyl)-5-methoxypyrimidine-4-carboxylate, reference compound]
  Visual Injury (%) AVEFA: 20%
